The record followed here is US11384078B2, “5,6-fused-bicyclic compounds and compositions for the treatment of parasitic diseases” (NOVARTIS AG, priority 2017, dated 2022).

What all share (assay type): cell-based
Test [1] relates to Trypanosoma cruzi amastigotes cultured in 3T3 fibroblast cells. Nature of the test: Assay for growth inhibition of kinetoplastid parasite Trypanosoma cruzi (beta-galactosidase Tulahuen strain, CPRG readout). Conditions: Trypanosoma cruzi, Fibroblast, T. cruzi amastigotes in 3T3 fibroblast cells; read-out: Buckner infectious T. cruzi EC50. A digest of the protocol:
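3T3 fibroblasts (1,000 cells/well) plated overnight, treated with compound in DMSO, then infected with 10,000 Lac-Z-expressing Tulahuen trypomastigotes. After 6 days, 0.6 mM CPRG with 0.6% NP-40 added for 2 h at room temperature; absorbance gives relative intracellular amastigote numbers. Benznidazole and nifurtimox serve as positive controls.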

Test [2] relates to L. donovani HU3 strain in mouse peritoneal macrophages. Nature of the test: Assay for inhibition of parasitemia of Leishmania donovani in mouse macrophages (SYBR Green nuclei count, high-content imaging). Conditions: Leishmania donovani, Peritoneal macrophage, L. donovani in mouse peritoneal macrophages; read-out: L. donovani in Mouse Macrophages EC50. A digest of the protocol: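 Peritoneal macrophages from uninfected BALB/c mice were infected for 24 h with spleen-derived L. donovani HU3 (4×10^5 parasites per 2×10^4 macrophages), then cultured with compound for 5 days at 37° C, 5% CO2. After fixation and permeabilization, parasite nuclei were stained with SYBR Green and counted by high-content imaging.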

Test [3] relates to Leishmania donovani axenic amastigote. Briefly: In vitro assay for growth inhibition of Leishmania donovani axenic amastigote (Cell TiterGlo luminescence). The note with it: Leishmania donovani, L. donovani axenic amastigotes in vitro; read-out: L. donovani amastigotes EC50. A digest of the protocol:
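Axenic L. donovani amastigotes (9600/well) grown at 37 °C, 5% CO2 in supplemented RPMI 1640, pH 5.5, with compound added from DMSO. After two days, viability read by CellTiter-Glo luminescence against DMSO and control-compound wells.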

The subject of test [4] is Trypanosoma brucei brucei (Lister 427) strain. Briefly: Assay for growth inhibition against Trypanosoma brucei brucei (Cell TiterGlo ATP luminescence). The note with it: Trypanosoma brucei, T. brucei brucei (Lister 427); read-out: T. Brucei (HAT) EC50. The method in brief: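 T. b. brucei Lister 427 grown in HMI-9 with 10% FBS and 10% serum plus, seeded at 10,000 parasites/mL with 10-point threefold compound dilutions in duplicate, 37 °C for 2 days. Viability read as ATP luminescence 30 min after Cell TiterGlo; IC50 versus untreated controls.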

As for `CC(C)c1cnc2nn(-c3cc(NC(=O)CCCC(F)(F)F)ccc3F)cc2c1` [Compound 214, 5,5,5-trifluoro-N-{4-fluoro-3-[5-(propan-2-yl)-2H-pyrazolo[3,4-b]pyridin-2-yl]phenyl}pentanamide], the EC50 came out at 1420 nM in test [1], 658 nM in test [2], 4600 nM in test [3] and 1060 nM in test [4].
The corresponding values for `Cc1nc(C)c(C(=O)Nc2ccc(F)c(-n3cc4cc(N5CCCC5)cnc4n3)c2)o1` [Compound 157, N-{4-fluoro-3-[5-(pyrrolidin-1-yl)-2H-pyrazolo[3,4-b]pyridin-2-yl]phenyl}-2,4-dimethyl-1,3-oxazole-5-carboxamide] are 13 nM, 18 nM, 25 nM and below 23 nM.
Take `O=C(Nc1ccnc(-n2cc3cc(N4CC(F)(F)C4)cnc3n2)c1)N1CCC1` [Compound 280, N-(2-(5-(3,3-difluoroazetidin-1-yl)-2H-pyrazolo[3,4-b]pyridin-2-yl)pyridin-4-yl)azetidine-1-carboxamide]: the EC50 came out at 48 nM in test [1], 28 nM in test [2], 33 nM in test [3] and 40 nM in test [4].
The corresponding values for `CNC(=O)Nc1ccc(F)c(-n2cc3cc(NC)cnc3n2)c1` [Compound 142, 1-{4-fluoro-3-[5-(methylamino)-2H-pyrazolo[3,4-b]pyridin-2-yl]phenyl}-3-methylurea] are 11000 nM, 9200 nM, 7800 nM and 4300 nM.
For `O=C(Nc1ccc(F)c(-n2cc3cc(N4CCN(CC(F)(F)F)CC4)cnc3n2)c1)N1CC(F)C1` [Compound 237, 3-fluoro-N-(4-fluoro-3-{5-[4-(2,2,2-trifluoroethyl)piperazin-1-yl]-2H-pyrazolo[3,4-b]pyridin-2-yl}phenyl)azetidine-1-carboxamide], the EC50 in test [1] was determined as 21 nM; in test [2], 9 nM; in test [3], 16 nM; in test [4] it was 5 nM.
In the case of `CN(C)c1cnc2nn(-c3cc(NC(=O)N4CC(F)C4)ccc3F)cc2c1` [Compound 167, N-{3-[5-(dimethylamino)-2H-pyrazolo[3,4-b]pyridin-2-yl]-4-fluorophenyl}-3-fluoroazetidine-1-carboxamide], the EC50 in test [1] was 2.2 nM; in test [2] it was 8.2 nM; in test [3], 2.9 nM; in test [4], below 23 nM.
For `Cc1nc(C(=O)Nc2ccc(F)c(-n3cc4cc(C(C)C)cnc4n3)c2)oc1C` [Compound 81, N-{4-fluoro-3-[5-(propan-2-yl)-2H-pyrazolo[3,4-b]pyridin-2-yl]phenyl}-4,5-dimethyl-1,3-oxazole-2-carboxamide] the same measures were 420 nM, 3600 nM, 3160 nM and 360 nM.
For `Cc1nc(CO)c(C(=O)Nc2ccc(F)c(-n3cc4cc(-c5ncccc5C)cnc4n3)c2)o1` [Compound 277, N-(4-fluoro-3-(5-(3-methylpyridin-2-yl)-2H-pyrazolo[3,4-b]pyridin-2-yl)phenyl)-4-(hydroxymethyl)-2-methyloxazole-5-carboxamide] the same measures were 144 nM, 138 nM, 40 nM and 82 nM.
As for `Cc1cccnc1-c1cnc2nn(-c3cc(NC(=O)C4=CC(C)(C)C4)ccc3F)cc2c1` [Compound 350, N-{4-fluoro-3-[5-(3-methylpyridin-2-yl)-2H-pyrazolo[3,4-b]pyridin-2-yl]phenyl}-3,3-dimethylcyclobut-1-ene-1-carboxamide], the EC50 in test [1] is 16 nM; in test [2], 58 nM; in test [3] it was 16 nM; in test [4] it was 28 nM.
Regarding `O=C(Nc1ccc(F)c(-n2cc3cc(N4CC(F)(F)C4)cnc3n2)c1)N1CC[C@@H](F)C1` [Compound 300, (3R)-N-{3-[5-(3,3-difluoroazetidin-1-yl)-2H-pyrazolo[3,4-b]pyridin-2-yl]-4-fluorophenyl}-3-fluoropyrrolidine-1-carboxamide], the EC50 worked out at 4 nM in test [1], 6 nM in test [2], 22 nM in test [3] and 3 nM in test [4].
On to `CC1(C)C=C(C(=O)Nc2ccc(F)c(-n3cc4cc(-c5ccccn5)cnc4n3)c2)C1` [Compound 347, N-{4-fluoro-3-[5-(pyridin-2-yl)-2H-pyrazolo[3,4-b]pyridin-2-yl]phenyl}-3,3-dimethylcyclobut-1-ene-1-carboxamide], for which the EC50 in test [1] amounted to 2 nM; in test [2], 15 nM; in test [3] it was 7 nM; in test [4], 7 nM.
Take `O=C(Nc1ccnc(-n2cc3cc(N4CC5(CC5)C4)cnc3n2)c1)N1CCC1` [Compound 282, N-[2-(5-{5-azaspiro[2.3]hexan-5-yl}-2H-pyrazolo[3,4-b]pyridin-2-yl)pyridin-4-yl}azetidine-1-carboxamide]: the EC50 in test [1] was 40 nM; in test [2], 70 nM; in test [3] it was 34 nM; in test [4], 27 nM.
With `Cc1nc(C)c(C(=O)Nc2ccc(F)c(-n3cc4cc(N5CCOCC5)cnc4n3)c2)o1` [Compound 158, N-{4-fluoro-3-[5-(morpholin-4-yl)-2H-pyrazolo[3,4-b]pyridin-2-yl]phenyl}-2,4-dimethyl-1,3-oxazole-5-carboxamide], the EC50 in test [1] was 15 nM; in test [2] it was 16 nM; in test [3], 16 nM; in test [4], below 23 nM.
`O=C(Nc1ccnc(-n2cc3cc(Br)cnc3n2)c1)N1CC[C@@H](F)C1` [Compound 340, (3R)-N-(2-{5-bromo-2H-pyrazolo[3,4-b]pyridin-2-yl}pyridin-4-yl)-3-fluoropyrrolidine-1-carboxamide]: the EC50 is 61 nM in test [1], 87 nM in test [2], 225 nM in test [3] and 35 nM in test [4].
Regarding `CC(C)(C)Cc1cnc2nn(-c3cc(NC(=O)N4CCC4)ccc3F)cc2c1` [Compound 94, N-{3-[5-(2,2-dimethylpropyl)-2H-pyrazolo[3,4-b]pyridin-2-yl]-4-fluorophenyl}azetidine-1-carboxamide], the EC50 was 1.8 nM in test [1], 8.1 nM in test [2], 12 nM in test [3] and below 23 nM in test [4].
Consider `CCC(C)(C)c1cnc2nn(-c3cc(NC(=O)N4CC[C@@H](F)C4)ccc3F)cc2c1` [Compound 49, (3R)-3-fluoro-N-{4-fluoro-3-[5-(2-methylbutan-2-yl)-2H-pyrazolo[3,4-b]pyridin-2-yl]phenyl}pyrrolidine-1-carboxamide], for which the EC50 in test [1] is 12000 nM; in test [2] it was 12000 nM; in test [3], 25000 nM; in test [4], 3400 nM.
Turning to `O=C(Nc1ccc(F)c(-n2cc3cc(N4CCC4)cnc3n2)c1)N1CC(F)(F)C1` [Compound 144, N-{3-[5-(azetidin-1-yl)-2H-pyrazolo[3,4-b]pyridin-2-yl]-4-fluorophenyl}-3,3-difluoroazetidine-1-carboxamide], the EC50 in test [1] is 17 nM; in test [2], 23 nM; in test [3] it was 23 nM; in test [4], below 23 nM.
On to `CCNc1cnc2nn(-c3cc(NC(=O)N4CC(F)C4)ccc3F)cc2c1` [Compound 199, N-{3-[5-(ethylamino)-2H-pyrazolo[3,4-b]pyridin-2-yl]-4-fluorophenyl}-3-fluoroazetidine-1-carboxamide], for which the EC50 in test [1] is 24 nM; in test [2], 21 nM; in test [3], 502 nM; in test [4], 5 nM.
Consider `Cc1nc(C)c(C(=O)Nc2ccc(F)c(-n3cc4cc(C5CCC5)cnc4n3)c2)o1` [Compound 101, N-(3-{5-cyclobutyl-2H-pyrazolo[3,4-b]pyridin-2-yl}-4-fluorophenyl)-2,4-dimethyl-1,3-oxazole-5-carboxamide], for which the 50% effective concentration (EC50) was 130 nM in test [1], 310 nM in test [2], 300 nM in test [3] and 150 nM in test [4].
For `CC(C)(C)Cc1cnc2nn(-c3cc(NC(=O)c4ccco4)ccc3F)cc2c1` [Compound 59, N-{3-[5-(2,2-dimethylpropyl)-2H-pyrazolo[3,4-b]pyridin-2-yl]-4-fluorophenyl}furan-2-carboxamide] the same measures were 4.7 nM, 21 nM, 68 nM and below 23 nM.
On to `O=C(Nc1ccc(F)c(-n2cc3cc(N4CCC5(CC5)C4)cnc3n2)c1)N1CC(F)C1` [Compound 241, N-[3-(5-{5-azaspiro[2.4]heptan-5-yl}-2H-pyrazolo[3,4-b]pyridin-2-yl)-4-fluorophenyl}-3-fluoroazetidine-1-carboxamide], for which the half-maximal effective concentration (EC50) stood at 3 nM in test [1], 6 nM in test [2], 1190 nM in test [3] and 5 nM in test [4].
